Structures are written as SMILES.

In test [1] the target is MtuDAH7PSG232P (Mycobacterium tuberculosis, UniProt O53512, G232P). The class given is biochemical.
The target in test [2] is MtuDAH7PSF227D (Mycobacterium tuberculosis, UniProt O53512, F227D). Format: biochemical.
Test [3] addresses T1, wild-type MtuDAH7PS (Mycobacterium tuberculosis, UniProt O53512). Particulars: cited from earlier work.
In test [4] the target is T1, wild-type MtuDAH7PS. The class given is biochemical.

Consider `N[C@@H](Cc1ccccc1)C(=O)O` [Phe, L-Phe], for which, in test [1], the “inhibition of dimeric variant MtuDAH7PSG232P” value stood at 50%. For the same compound, in test [2], the “inhibition of dimeric variant MtuDAH7PSF227D” value was 50%. Besides, the “inhibition of wild-type enzyme by single amino acid, unsaturated E4P” value in test [3] is reported as 50%.
In the case of `N[C@@H](Cc1ccc(O)cc1)C(=O)O` [Tyr, L-Tyr], in test [4], the “inhibition of wild-type enzyme” value is recorded as “no inhibition”. In addition, in test [1], the “inhibition of dimeric variant MtuDAH7PSG232P” value was determined as 40%. Also, the “inhibition of dimeric variant MtuDAH7PSF227D” value in test [2] stood at 40%. Also, the “inhibition of wild-type enzyme by single amino acid, unsaturated E4P” value in test [3] was 47%.

The values are drawn from PMC5493349, “Quaternary structure is an essential component that contributes to the sophisticated allosteric regulation mechanism in a key enzyme from Mycobacterium tuberculosis” (PLoS ONE, 2017).
